# Columns and labels:
# [1] = In vivo biodistribution in mice; parameters: species or system normal CD-1 male mice; settings: iv
# Experimental: Biodistribution experiments were performed by intravenously administering ^68Ga labeled 1a-h, 2, 3, BPAMD, and [^18F]NaF into normal, healthy male CD-1 mice (25-30 g). The injection activity was 20-30 μCi/animal. […] Organs of interest were harvested, weighed, and counts of radioactivity were measured by a gamma counter. The biodistribution of each sample was calculated as a percentage of the injected dose per gram of wet tissue weight (% ID/g). Tibia and femur bones were harvested and counted as bone samples.
# [2] = In vitro binding to hydroxyapatite; settings: 20 mg hydroxyapatite in saline, 10 min at room temperature
# Experimental: Hydroxyapatite (20 mg, Sigma-Aldrich, reagent grade powder) was incubated in isotonic saline (1 mL) for 24 h. Subsequently, either ^68Ga labeled 1a-h, 2, 3, BPAMD, or [^18F]NaF (1 μCi) was added to the hydroxyapatite suspension. After vortexing for 10 seconds, the suspension was incubated for 10 min at room temperature. The samples were then centrifuged at 10,000 rpm for 3 min and the supernatant was removed. The hydroxyapatite fraction was washed twice with saline (1 mL). Radioactivity in the combined supernatants and the hydroxyapatite fraction was measured using a gamma counter. The proportion of the ^68Ga complex binding to hydroxyapatite was determined as percent of ^68Ga absorbed to hydroxyapatite.
smiles,measurement,setting,value
"O=C([O-])CN(CCN(CC(=O)[O-])Cc1cc(CCC(=O)O)ccc1[O-])Cc1cc(CCC(=O)O)ccc1[O-].[68Ga+3] [[^68Ga]HBED-CC, reference compound]",bone to blood ratio,[1]; 2 min,0.2
same,bone to muscle ratio,[1]; 2 min,0.8
same,Biodistribution: Blood,[1]; 2 min post injection,7.66 ± 0.75 % dose/g
same,Biodistribution: Bone,[1]; 2 min post injection,1.85 ± 0.05 % dose/g
same,Biodistribution: Brain,[1]; 2 min post injection,0.29 ± 0.08 % dose/g
same,Biodistribution: Heart,[1]; 2 min post injection,2.74 ± 0.34 % dose/g
same,Biodistribution: Kidney,[1]; 2 min post injection,27.2 ± 0.64 % dose/g
same,Biodistribution: Liver,[1]; 2 min post injection,1.75 ± 0.08 % dose/g
same,Biodistribution: Lung,[1]; 2 min post injection,4.27 ± 0.34 % dose/g
same,Biodistribution: Muscle,[1]; 2 min post injection,2.30 ± 0.13 % dose/g
same,Biodistribution: Pancreas,[1]; 2 min post injection,1.60 ± 0.12 % dose/g
same,Biodistribution: Skin,[1]; 2 min post injection,3.18 ± 0.43 % dose/g
same,Biodistribution: Spleen,[1]; 2 min post injection,1.69 ± 0.18 % dose/g
same,bone to blood ratio,[1]; 30 min,0.3
same,bone to muscle ratio,[1]; 30 min,0.9
same,Biodistribution: Blood,[1]; 30 min (0.5 hr) post injection,0.83 ± 0.09 % dose/g
same,Biodistribution: Bone,[1]; 30 min (0.5 hr) post injection,0.28 ± 0.06 % dose/g
same,Biodistribution: Brain,[1]; 30 min (0.5 hr) post injection,0.04 ± 0.01 % dose/g
same,Biodistribution: Heart,[1]; 30 min (0.5 hr) post injection,0.34 ± 0.06 % dose/g
same,Biodistribution: Kidney,[1]; 30 min (0.5 hr) post injection,3.22 ± 0.41 % dose/g
same,Biodistribution: Liver,[1]; 30 min (0.5 hr) post injection,0.38 ± 0.08 % dose/g
same,Biodistribution: Lung,[1]; 30 min (0.5 hr) post injection,0.58 ± 0.07 % dose/g
same,Biodistribution: Muscle,[1]; 30 min (0.5 hr) post injection,0.32 ± 0.06 % dose/g
same,Biodistribution: Pancreas,[1]; 30 min (0.5 hr) post injection,0.26 ± 0.01 % dose/g
same,Biodistribution: Skin,[1]; 30 min (0.5 hr) post injection,0.64 ± 0.08 % dose/g
same,Biodistribution: Spleen,[1]; 30 min (0.5 hr) post injection,0.26 ± 0.04 % dose/g
same,bone to blood ratio,[1]; 60 min,1.7
same,bone to muscle ratio,[1]; 60 min,2.3
same,Biodistribution: Blood,[1]; 60 min (1 hr) post injection,0.14 ± 0.04 % dose/g
same,Biodistribution: Bone,[1]; 60 min (1 hr) post injection,0.25 ± 0.16 % dose/g
same,Biodistribution: Brain,[1]; 60 min (1 hr) post injection,0.02 ± 0.01 % dose/g
same,Biodistribution: Heart,[1]; 60 min (1 hr) post injection,0.17 ± 0.11 % dose/g
same,Biodistribution: Kidney,[1]; 60 min (1 hr) post injection,0.91 ± 0.32 % dose/g
same,Biodistribution: Liver,[1]; 60 min (1 hr) post injection,0.11 ± 0.02 % dose/g
same,Biodistribution: Lung,[1]; 60 min (1 hr) post injection,0.19 ± 0.04 % dose/g
same,Biodistribution: Muscle,[1]; 60 min (1 hr) post injection,0.11 ± 0.04 % dose/g
same,Biodistribution: Pancreas,[1]; 60 min (1 hr) post injection,0.13 ± 0.05 % dose/g
same,Biodistribution: Skin,[1]; 60 min (1 hr) post injection,0.09 ± 0.07 % dose/g
same,Biodistribution: Spleen,[1]; 60 min (1 hr) post injection,0.12 ± 0.02 % dose/g
same,bone to blood ratio,[1]; 120 min,12
same,bone to muscle ratio,[1]; 120 min,3.3
same,Biodistribution: Blood,[1]; 120 min post injection,0.01 ± 0.00 % dose/g
same,Biodistribution: Bone,[1]; 120 min post injection,0.18 ± 0.06 % dose/g
same,Biodistribution: Brain,[1]; 120 min post injection,0.02 ± 0.00 % dose/g
same,Biodistribution: Heart,[1]; 120 min post injection,0.09 ± 0.00 % dose/g
same,Biodistribution: Kidney,[1]; 120 min post injection,0.08 ± 0.05 % dose/g
same,Biodistribution: Liver,[1]; 120 min post injection,0.04 ± 0.02 % dose/g
same,Biodistribution: Lung,[1]; 120 min post injection,0.07 ± 0.02 % dose/g
same,Biodistribution: Muscle,[1]; 120 min post injection,0.05 ± 0.02 % dose/g
same,Biodistribution: Pancreas,[1]; 120 min post injection,0.07 ± 0.01 % dose/g
same,Biodistribution: Skin,[1]; 120 min post injection,0.03 ± 0.01 % dose/g
same,Biodistribution: Spleen,[1]; 120 min post injection,0.13 ± 0.03 % dose/g
same,Hydroxyapatite Binding (%),[2],0.4±0.1%

# Source: patent US10253052B2, “HBED-bisphosphonates, radiometal conjugates and their use as theranostic agents” (Five Eleven Pharma Inc., priority 2015, dated 2019)
